Measurements from US8399465B2, “Compounds with two fused bicyclic heteroaryl moieties as modulators of leukotriene A4 hydrolase” (Janssen Pharmaceutica NV, priority 2009, dated 2013).
Counter-ions that a name gives are not always drawn.

How the values were obtained:
[1] = system: LTB4 production in murine blood (LTA4H); assay: LTB4 production by calcium ionophore-stimulated murine blood for LTA4H inhibitor activity; type: cell-based, CD-1 mice; conditions: Mus musculus; murine blood diluted 1 in 15, A23187 stimulated; single determination or average; mark after value = form tested: ′ free base, ″ hydrochloride, ^ formate; read-out: IC50
In short: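 LTB4 was measured by ELISA in supernatants after calcium ionophore A23187 stimulation (final 7 μg/mL, 30 min, 37° C) of CD-1 mouse blood collected on heparin. Compound was preincubated with the blood for 15 min beforehand. Values come from one determination or average several.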

[2] = biological target: T1, recombinant human LTA4 hydrolase (rhLTA4H) (Homo sapiens, UniProt P09960); assay: Recombinant human LTA4 hydrolase assay for LTA4 hydrolase inhibitor activity; type: biochemical; conditions: rhLTA4H, LTB4 by immunoassay; single determination or average of two or more; mark after value = form tested: ′ free base, ″ hydrochloride, ^ formate; read-out: IC50
T1 construct: made in house; host or cells: Spodoptera frugiperda (Sf-9) cells, baculovirus (pFastBac1)
T1 sequence (P09960 1-611): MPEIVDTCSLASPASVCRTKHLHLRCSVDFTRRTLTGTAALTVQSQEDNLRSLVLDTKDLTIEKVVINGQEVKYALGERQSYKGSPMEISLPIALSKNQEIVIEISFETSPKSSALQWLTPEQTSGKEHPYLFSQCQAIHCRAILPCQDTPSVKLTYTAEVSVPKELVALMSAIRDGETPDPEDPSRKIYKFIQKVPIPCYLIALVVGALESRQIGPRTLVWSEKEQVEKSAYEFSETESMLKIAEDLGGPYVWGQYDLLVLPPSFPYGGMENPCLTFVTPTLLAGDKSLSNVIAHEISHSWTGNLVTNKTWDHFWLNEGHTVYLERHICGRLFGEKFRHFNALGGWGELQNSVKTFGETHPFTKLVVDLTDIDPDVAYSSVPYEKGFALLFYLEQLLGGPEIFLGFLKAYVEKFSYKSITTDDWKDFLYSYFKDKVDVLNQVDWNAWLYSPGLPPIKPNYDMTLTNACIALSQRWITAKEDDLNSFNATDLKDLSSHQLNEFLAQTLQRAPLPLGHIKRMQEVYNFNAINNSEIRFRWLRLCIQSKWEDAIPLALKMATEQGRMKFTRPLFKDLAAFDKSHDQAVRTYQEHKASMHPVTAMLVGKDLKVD
In short: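 LTB4 formation, measured by enzyme immunoassay, was the read-out. The enzyme, recombinant human LTA4H expressed in Sf-9 insect cells (10 ng per reaction), was exposed to compound for 10 min at room temperature before hydrolysed-ester LTA4 substrate was added for 30 min. Enzyme-free negatives were included.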

Row | SMILES | IC50 [1] [nM] | IC50 [2] [nM]
1 | NC(=O)C1CCN(Cc2c[nH]c3cc(Oc4nc5ccccc5s4)cnc23)CC1 [Example 33, 1-[6-(Benzothiazol-2-yloxy)-1H-pyrrolo[3,2-b]pyridin-3-ylmethyl]-piperidine-4-carboxylic acid amide] | 1520 | 42
2 | Fc1ccc2sc3c(c2c1)CN(Cc1c[nH]c2cc(Oc4nc5ncccc5s4)ccc12)CC3 [Example 38, 8-Fluoro-2-[6-(thiazolo[4,5-b]pyridin-2-yloxy)-1H-indol-3-ylmethyl]-1,2,3,4-tetrahydro-benzo[4,5]thieno[3,2-c]pyridine] | 350 | 29
3 | CCN(CC)Cc1coc2cc(Oc3nc4ncccc4s3)ccc12 [Example 219, Diethyl-[6-(thiazolo[4,5-b]pyridin-2-yloxy)-benzofuran-3-ylmethyl]-amine] | 20 | 2
4 | O=C(c1coc2cc(Oc3nc4ncccc4s3)ccc12)N1CCC(Oc2ncccn2)CC1 [Example 382, [4-(Pyrimidin-2-yloxy)-piperidin-1-yl]-[6-(thiazolo[4,5-b]pyridin-2-yloxy)-benzofuran-3-yl]-methanone] | 60 | 10
5 | CS(=O)(=O)NC1CCN(Cc2coc3cc(Oc4nc5ccccc5s4)ccc23)CC1 [Example 363, N-{1-[6-(Benzothiazol-2-yloxy)-benzofuran-3-ylmethyl]-piperidin-4-yl}-methanesulfonamide] | 400 | 37
6 | CC(=O)N[C@H]1C[C@H]2CC[C@@H](C1)N2Cc1coc2cc(Oc3nc4ccccc4s3)ccc12 [Example 181, meso-endo-N-{8-[6-(Benzothiazol-2-yloxy)-benzofuran-3-ylmethyl]-8-aza-bicyclo[3.2.1]oct-3-yl}-acetamide] | 33 | 3
7 | CC(=O)N[C@H]1C[C@H]2CC[C@@H](C1)N2Cc1c[nH]c2cc(Oc3nc4ncccc4s3)ccc12 [Example 18, meso-endo-N-{8-[6-(Thiazolo[4,5-b]pyridin-2-yloxy)-1H-indol-3-ylmethyl]-8-aza-bicyclo[3.2.1]oct-3-yl}-acetamide] | 301 | 1
8 | CC(=O)NC1CCN(Cc2coc3cc(Oc4nc5ccccc5s4)ccc23)CC1 [Example 180, N-{1-[6-(Benzothiazol-2-yloxy)-benzofuran-3-ylmethyl]-piperidin-4-yl}-acetamide] | 38 | 21
9 | c1ccc2sc(Oc3ccc4cc(CN5CCCC5)[nH]c4c3)nc2c1 [Example 68, 2-(2-Pyrrolidin-1-ylmethyl-1H-indol-6-yloxy)-benzothiazole] | 450 | 20
10 | O=C1CCCN1C1CCN(Cc2coc3cc(Oc4nc5ccccc5s4)ccc23)CC1 [Example 179, 1-{1-[6-(Benzothiazol-2-yloxy)-benzofuran-3-ylmethyl]-piperidin-4-yl}-pyrrolidin-2-one] | 75 | 11
11 | c1ccc2sc(Oc3cnc4c(CN5CCOCC5)c[nH]c4c3)nc2c1 [Example 32, 2-(3-Morpholin-4-ylmethyl-1H-pyrrolo[3,2-b]pyridin-6-yloxy)-benzothiazole] | 258 | 96
12 | c1cnc2nc(Oc3ccc4c(CN5CCc6sc7ccccc7c6C5)c[nH]c4c3)sc2c1 [Example 34, 2-[6-(Thiazolo[4,5-b]pyridin-2-yloxy)-1H-indol-3-ylmethyl]-1,2,3,4-tetrahydro-benzo[4,5]thieno[3,2-c]pyridine formate] | 401 | 20
13 | CC(=O)N[C@H]1C[C@H]2CC[C@@H](C1)N2Cc1cc2cc(Oc3nc4c(F)cccc4s3)ccc2o1 [Example 85, meso-endo-N-{8-[5-(4-Fluoro-benzothiazol-2-yloxy)-benzofuran-2-ylmethyl]-8-aza-bicyclo[3.2.1]oct-3-yl}-acetamide] | 210 | 17
14 | CC(=O)N[C@H]1C[C@H]2CC[C@@H](C1)N2Cc1cc2ccc(Oc3nc4ccccc4s3)cc2s1 [Example 134, meso-endo-N-{8-[6-(Benzothiazol-2-yloxy)-benzo[b]thiophen-2-ylmethyl]-8-aza-bicyclo[3.2.1]oct-3-yl}-acetamide] | 740 | 43
15 | O=C(O)C1CCN(Cc2c[nH]c3cc(Oc4nc5ccccc5s4)ccc23)CC1 [Example 45, 1-[6-(Benzothiazol-2-yloxy)-1H-indol-3-ylmethyl]-piperidine-4-carboxylic acid] | 1340 | 6

More lines, in order of falling IC50 [1], values ahead:

Row | IC50 [1] [nM] | IC50 [2] [nM] | SMILES
16 | 1060 | 54 | c1ccc2c(c1)CN(Cc1coc3cc(Oc4nc5ncccc5s4)ccc13)C2 [Example 331, 2-[3-(1,3-Dihydro-isoindol-2-ylmethyl)-benzofuran-6-yloxy]-thiazolo[4,5-b]pyridine]
17 | 410 | 20 | O=C(c1coc2cc(Oc3nc4ncccc4s3)ccc12)N1CCC(c2ccccc2)CC1 [Example 377, (4-Phenyl-piperidin-1-yl)-[6-(thiazolo[4,5-b]pyridin-2-yloxy)-benzofuran-3-yl]-methanone]
18 | 240 | 19 | c1cnc2nc(Oc3ccc4c(CNC5CC5)coc4c3)sc2c1 [Example 297, Cyclopropyl-[6-(thiazolo[4,5-b]pyridin-2-yloxy)-benzofuran-3-ylmethyl]-amine]
19 | 220 | 27 | CC(=O)NC1CCN(Cc2coc3cc(Oc4nc5ncc(C)cc5s4)ccc23)CC1 [Example 251, N-{1-[6-(6-Methyl-thiazolo[4,5-b]pyridin-2-yloxy)-benzofuran-3-ylmethyl]-piperidin-4-yl}-acetamide formate]
20 | 160 | 24 | c1cnc2nc(Oc3ccc4c(CN5CCC(N6CCCCC6)CC5)coc4c3)sc2c1 [Example 284, 1′-[6-(Thiazolo[4,5-b]pyridin-2-yloxy)-benzofuran-3-ylmethyl]-[1,4′]bipiperidinyl formate]
21 | 87 | 17 | c1cnc2nc(Oc3ccc4cc(CN5CCCCC5)[nH]c4c3)sc2c1 [Example 71, 2-(2-Piperidin-1-ylmethyl-1H-indol-6-yloxy)-thiazolo[4,5-b]pyridine]
22 | 85 | 13 | O=C(c1coc2cc(Oc3nc4ncccc4s3)ccc12)N1CCC(F)CC1 [Example 376, (4-Fluoro-piperidin-1-yl)-[6-(thiazolo[4,5-b]pyridin-2-yloxy)-benzofuran-3-yl]-methanone]
23 | 79 | 5 | COC1CCN(Cc2coc3cc(Oc4nc5ncccc5s4)ccc23)CC1 [Example 271, 2-[3-(4-Methoxy-piperidin-1-ylmethyl)-benzofuran-6-yloxy]-thiazolo[4,5-b]pyridine formate]
24 | 34 | 10 | OC1CN(Cc2coc3cc(Oc4nc5ncccc5s4)ccc23)C1 [Example 315, 1-[6-(Thiazolo[4,5-b]pyridin-2-yloxy)-benzofuran-3-ylmethyl]-azetidin-3-ol]
25 | 12 | 5 | c1cnc2nc(Oc3ccc4c(CN5CCC(c6ccncc6)CC5)coc4c3)sc2c1 [Example 220, 1-[6-(Thiazolo[4,5-b]pyridin-2-yloxy)-benzofuran-3-ylmethyl]-1,2,3,4,5,6-hexahydro-[4,4′]bipyridinyl]
26 | 10 | 20 | CN(C)Cc1coc2cc(Oc3nc4ncccc4s3)ccc12 [Example 361, Dimethyl-[6-(thiazolo[4,5-b]pyridin-2-yloxy)-benzofuran-3-ylmethyl]-amine]
